Data: patent publication US6737507B2, “Antiangiogenic peptides and compositions thereof” (Children's Medical Center Corporation, priority 1999, dated 2004)

Tests used:
[1] = test system: capillary tube formation; conditions: in vitro; cited from earlier work
[2] = biological target: T1, MMP-1 (Homo sapiens, UniProt P03956); assay: MMP-1 activity assay; format: biochemical; conditions: FIG. 2
T1 sequence (P03956 100-469): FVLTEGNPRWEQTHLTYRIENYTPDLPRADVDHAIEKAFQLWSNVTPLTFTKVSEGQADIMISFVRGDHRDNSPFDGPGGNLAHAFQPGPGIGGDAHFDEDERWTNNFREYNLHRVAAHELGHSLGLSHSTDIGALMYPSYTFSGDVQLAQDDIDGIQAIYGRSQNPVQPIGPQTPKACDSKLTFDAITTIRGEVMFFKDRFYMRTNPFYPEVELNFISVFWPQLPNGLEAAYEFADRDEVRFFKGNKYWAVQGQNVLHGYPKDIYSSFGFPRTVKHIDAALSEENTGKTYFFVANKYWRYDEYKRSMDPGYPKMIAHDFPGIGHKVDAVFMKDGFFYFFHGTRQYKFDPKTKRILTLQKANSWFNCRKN
Source text: FIG. 2: MMP-1 activity assay. The purified protein inhibited bFGF-stimulated EC proliferation in the bFGF stimulated EC proliferation assay (Moses, et al., Science, 248:1408-1410 (1990)) (FIG. 1) and inhibited neovascularization in vivo in the CAM assay.

[3] = test system: neovascularization; assay: CAM assay (chick chorioallantoic membrane), neovascularization in vivo
Source text: Assays for the ability to inhibit angiogenesis in vivo include the chick chorioallantoic membrane assay and mouse, rat or rabbit corneal pocket assays. See, Polverini et al., 1991, Methods Enzymol. 198:440-450. In corneal pocket assays, a tumor of choice is implanted into the cornea of the test animal in the form of a corneal pocket. The potential angiogenesis inhibitor is applied to the corneal pocket and the corneal pocket is routinely examined for neovascularization. The purified protein inhibited bFGF-stimulated EC proliferation in the bFGF stimulated EC proliferation assay (Moses, et al., Science, 248:1408-1410 (1990)) (FIG. 1) and inhibited neovascularization in vivo in the CAM assay.

[4] = test system: capillary endothelial cells (EC); assay: bFGF-stimulated EC proliferation assay; format: cell-based; conditions: FIG. 1
Source text: Inhibition of endothelial cell proliferation may be measured by calorimetric determination of cellular acid phosphatase activity or electronic cell counting. These methods provide a quick and sensitive screen for determining the number of endothelial cells in culture after treatment with the connective tissue growth factor protein, derivative, or analog of the invention, and an angiogenesis stimulating factor such as aFGF. The calorimetric determination of cellular acid phosphatase activity is described by Connolly et al., 1986, J. Anal. Biochem. J52:136-140. According to this method, capillary endothelial cells are treated with angiogenesis stimulating factors, such as aFGF, and a range of potential inhibitor concentrations. These samples are incubated to allow for growth, and then harvested, washed, lysed in a buffer containing a phosphatase substrate, and then incubated a second time. A basic solution is added to stop the reaction and color development is determined at […]. According to Connolly et al., a linear relationship is obtained between acid phosphatase activity and endothelial cell number up to 10,000 cells/sample. […] Percent inhibition is determined by comparing the cell number of samples exposed to stimulus with those exposed to both stimulus and inhibitor. […] Following incubation, the cells are harvested and the extent of thymidine incorporation is determined. […]

[5] = test system: microvascular cells; conditions: in vitro, amnion invasion assay; cited from earlier work
[6] = test system: endothelial cell; conditions: cited from earlier work
[7] = test system: MMP; assay: standard radiometric enzyme assay for MMP inhibition; format: biochemical
Method: After 24 hours, positive colonies were harvested, pooled and re-plated into minimal plates. Since multiple copies of the construct are reported to confer resistance to high levels of GF18 we screened for “jackpot” clones by replica plating in increasing doses of GF18, as high as 4 mg/ml. After four days, approximately five colonies containing multiple copies of the gene were screened for expression levels of TIMP-3 in 5 ml cultures. The two clones showing the highest expression, T3-3 His+Mut^s and T3-A His+Mut^s, were then used to inoculate 500 ml cultures, as was one clone containing pPIC9K vector alone as a control for background expression. Both T3-3 and T3-A produced a prominent protein band at app. […] Highly purified TIMP-3 was obtained by subsequent chromatography on a Progel-TSK G30000SWK HPLC column (Supelco) followed by SDS-PAGE and silver staining. […] Both T3-3 and T3-A were inhibitory when tested in the standard radiometric enzyme assay for MMP inhibition (Moses, M. A., et al., Science 248:1408-1410, (1990) and Moses, M. A., et al., J. Cell Biol. 119:475-482, (1992)).

Question: With `c1cnc2c(c1)ccc1cccnc12` [1,10-phenanthroline] as the molecule, how does the “inhibition of capillary tube formation” value [1] read?
Answer: could inhibit

Question: Which “inhibition of MMP-1 activity” value [2] does the source give for “CKITRCPMIPCYISSPDECLWMDWVTEKNINGHQAKFFACIKRSDGSCAWYRGA APPKQEFLDIEDP [purified protein]” here?
Answer: did not inhibit

Question: What about the “inhibition of neovascularization in vivo” value [3] of the same molecule?
Answer: inhibited

Question: And the “inhibition of bFGF-stimulated EC proliferation” value [4]?
Answer: inhibited

Question: For “TIMP-1: Tissue Inhibitor of MetalloProteinase 1”, which “inhibition of migration of microvascular cells” value [5] is on record?
Answer: could inhibit

Question: And the “inhibition of FGF-stimulated endothelial cell proliferation” value ([6]; FGF-stimulated)?
Answer: not

Question: And the “effect on growth of EC proliferation” value ([6]; other studies)?
Answer: stimulate

B1: T3-3: full length human TIMP-3 expressed by Pichia pastoris clone T3-3 (protein)
chain: CTCSPSHPQDAFCNSDIVIRAKVVGKKLVKEGPFGTLVYTIKQMKMYRGFTKMPHVQYIHTEASESLCGLKLEVNKYQYLLTGRVYDGKMYTGLCNFVERWDQLTLSQRKGLNYRYHLGCNCKIKSCYYLPCFVTSKNECLWTDMLSNFGYPGYQSKHYACIRQKGGYCSWYRGWAPPDKSIINATDP
Question: For B1, which MMP inhibition [7] is on record?
Answer: inhibitory

B2: T3-A: full length human TIMP-3 expressed by Pichia pastoris clone T3-A (protein)
chain: B1 chain
Question: For B2, which MMP inhibition [7] is on record?
Answer: inhibitory
